Source: PMC6273231 (Molecules, 2016)

Biological target: influenza virus neuraminidase (NA) (Influenza A virus, UniProt Q6DPL2)
Conditions: enzyme inhibition assay in vitro

Sequence of influenza virus neuraminidase (NA) (Q6DPL2 whole entry, looked up): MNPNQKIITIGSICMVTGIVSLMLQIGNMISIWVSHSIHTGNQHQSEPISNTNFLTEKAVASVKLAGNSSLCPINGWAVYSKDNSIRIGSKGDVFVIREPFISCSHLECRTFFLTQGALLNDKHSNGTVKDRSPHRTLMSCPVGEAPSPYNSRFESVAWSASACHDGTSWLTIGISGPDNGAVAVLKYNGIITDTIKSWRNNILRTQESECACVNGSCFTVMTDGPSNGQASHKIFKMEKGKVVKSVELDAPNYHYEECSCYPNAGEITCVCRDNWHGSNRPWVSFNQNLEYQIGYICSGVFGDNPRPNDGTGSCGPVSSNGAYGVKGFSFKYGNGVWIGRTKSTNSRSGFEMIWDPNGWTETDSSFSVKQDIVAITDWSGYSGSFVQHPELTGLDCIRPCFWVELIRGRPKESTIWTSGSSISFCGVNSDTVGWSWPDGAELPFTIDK

Compound | NA inhibitory activity compared with the positive control Oseltamivir acid (in words)
C[C@]12C[C@@H](O)[C@@H]3C[C@@]1(O[C@@H]1O[C@H](CO)[C@@H](O)[C@H](O)[C@H]1O)[C@]3(COC(=O)c1ccccc1)C(=O)O2 [Albiflorin] | stronger activity against NA than Oseltamivir acid
C[C@@]12C[C@@]3(O)O[C@@H](O1)[C@]1(COC(=O)c4ccccc4)[C@H]3C[C@@]12O[C@@H]1O[C@H](COC(=O)c2ccccc2)[C@@H](O)[C@H](O)[C@H]1O [Benzoylpaeoniflorin] | stronger activity against NA than Oseltamivir acid
C[C@@]12C[C@@]3(O)O[C@@H](O1)[C@]1(COC(=O)c4ccccc4)[C@H]3C[C@@]12O[C@@H]1O[C@H](CO)[C@@H](O)[C@H](O)[C@H]1O [Paeoniflorin] | stronger activity against NA than Oseltamivir acid
O=C(OC[C@H]1O[C@@H](OC(=O)c2cc(O)c(O)c(O)c2)[C@H](OC(=O)c2cc(O)c(O)c(O)c2)[C@@H](OC(=O)c2cc(O)c(O)c(O)c2)[C@@H]1OC(=O)c1cc(O)c(O)c(O)c1)c1cc(O)c(O)c(O)c1 [pentagalloylglucose, Pentagalloyl glucose] | stronger activity against NA than Oseltamivir acid
